Tests used:
Assay type in all cases: in vivo
[1] = system: morningglory (Ipomoea spp.); test: Test A pre-/postemergence plant response
How it was run: (§1)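 Each species was treated preemergence via directed soil spray and postemergence at the one- to two-leaf stage, with compounds formulated in a non-phytotoxic solvent plus surfactant. Visual injury relative to untreated controls was rated after about ten days on a 0–100 scale.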

[2] = system: wheat (Triticum aestivum); test: Test A pre-/postemergence plant response
How it was run: as §1

[3] = system: velvetleaf (Abutilon theophrasti); test: Test A pre-/postemergence plant response
How it was run: as §1

[4] = system: pigweed (Amaranthus retroflexus); test: Test A pre-/postemergence plant response
How it was run: as §1

[5] = system: large crabgrass (Digitaria sanguinalis); test: Test A pre-/postemergence plant response
How it was run: as §1

corn (Zea mays) = test: Test A pre-/postemergence plant response
How it was run: as §1

[6] = system: giant foxtail (Setaria faberii); test: Test A pre-/postemergence plant response
How it was run: as §1

[7] = system: barnyardgrass (Echinochloa crus-galli); test: Test A pre-/postemergence plant response
How it was run: as §1

[8] = system: umbrella sedge (Cyperus difformis); test: Test B flooded paddy test; settings: for Plant response rating, Flood, Sedge, Umbrella: 250 g ai/ha, flooded paddy test, visual rating on 0 to 100 scale (0 no effect, 100 complete control) after 13 to 15 days; for Plant response rating, Sedge, Umbrella: Flood (flooded paddy test), 13 to 15 days
How it was run: (§2)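 Visual scores run from 0 (no effect) to 100 (complete control), assigned by comparison with controls 13 to 15 days after treatment. Test compounds went straight into water standing 3 cm above the soil, around plants at the 2-leaf stage kept in a greenhouse.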

rice (Oryza sativa) = test: Test B flooded paddy test; settings: for Plant response rating, Flood, Rice: 250 g ai/ha, flooded paddy test, visual rating on 0 to 100 scale (0 no effect, 100 complete control) after 13 to 15 days; for Plant response rating, Rice: Flood (flooded paddy test), 13 to 15 days
How it was run: as §2

[9] = system: ducksalad (Heteranthera limosa); test: Test B flooded paddy test; settings: for Plant response rating, Flood, Ducksalad: 250 g ai/ha, flooded paddy test, visual rating on 0 to 100 scale (0 no effect, 100 complete control) after 13 to 15 days; for Plant response rating, Ducksalad: Flood (flooded paddy test), 13 to 15 days
How it was run: as §2

[10] = system: barnyardgrass (Echinochloa crus-galli); test: Test B flooded paddy test; settings: for Plant response rating, Flood, Barnyardgrass: 250 g ai/ha, flooded paddy test, visual rating on 0 to 100 scale (0 no effect, 100 complete control) after 13 to 15 days; for Plant response rating, Barnyardgrass: Flood (flooded paddy test), 13 to 15 days
How it was run: as §2

[11] = Postemergence, 125 g ai/ha, 0 to 100 scale where 0 is no effect and 100 is complete control
[12] = Postemergence, 500 g ai/ha, visual injury, 0 to 100 scale (0 no effect, 100 complete control), approx. ten days
[13] = Preemergence, 125 g ai/ha, 0 to 100 scale, 0 = no effect, 100 = complete control
[14] = Preemergence, 500 g ai/ha, 0 to 100 scale, 0 = no effect, 100 = complete control
[15] = 62 g ai/ha, scale of 0 to 100 where 0 is no effect and 100 is complete control
[16] = 125 g ai/ha, scale 0 to 100, 0 is no effect, 100 is complete control
[17] = Flood, 31 g ai/ha, scale 0 to 100 (0 no effect, 100 complete control)
[18] = Postemergence, 500 g ai/ha, 0 to 100 scale, 0 = no effect, 100 = complete control, approx. ten days
[19] = Preemergence, 500 g ai/ha, visual injury, 0 to 100 scale (0 no effect, 100 complete control), approx. ten days

`COCCn1c(-c2cccc(F)c2)ncc(C(=O)C2=C(O)C3CCC(C3)C2=O)c1=O` (stereo not drawn) [Compound 235] was tested, and the “Plant response rating, Morningglory” value [1, 11] was 100, the “Morningglory plant response rating” value [1, 12] was 100 and the “Plant response rating, Morningglory” value [1, 13] was 80. The “Plant response rating, Morningglory” value [1, 14] was 90, the “Plant response rating, Wheat” value [2, 11] was 50 and the “Wheat plant response rating” value [2, 12] was 80. The “Plant response rating, Wheat” value [2, 13] was 10, the “Plant response rating, Wheat” value [2, 14] was 40 and the “Plant response rating, Velvetleaf” value [3, 11] was 100. For the same compound, the “Velvetleaf plant response rating” value [3, 12] was 100, the “Plant response rating, Velvetleaf” value [3, 13] was 100 and the “Plant response rating, Velvetleaf” value [3, 14] was 100. For the same compound, the “Plant response rating, Pigweed” value [4, 11] was 100, the “Pigweed plant response rating” value [4, 12] was 100 and the “Plant response rating, Pigweed” value [4, 13] was 90. For the same compound, the “Plant response rating, Pigweed” value [4, 14] was 90, the “Plant response rating, Crabgrass, Large” value [5, 11] was 100 and the “Crabgrass, Large plant response rating” value [5, 12] was 100. For the same compound, the “Plant response rating, Crabgrass, Large” value [5, 13] was 100, the “Plant response rating, Crabgrass, Large” value [5, 14] was 100 and the “Plant response rating, Corn” value (corn (Zea mays); [11]) was 80. The “Corn plant response rating” value (corn (Zea mays); [12]) was 90, the “Plant response rating, Corn” value (corn (Zea mays); [13]) was 20 and the “Plant response rating, Corn” value (corn (Zea mays); [14]) was 70. The “Plant response rating, Foxtail, Giant” value [6, 11] was 90, the “Foxtail, Giant plant response rating” value [6, 12] was 100 and the “Plant response rating, Foxtail, Giant” value [6, 13] was 70. For the same compound, the “Plant response rating, Foxtail, Giant” value [6, 14] was 90, the “Plant response rating, Barnyardgrass” value [7, 11] was 90 and the “Barnyardgrass plant response rating” value [7, 12] was 100. For the same compound, the “Plant response rating, Barnyardgrass” value [7, 13] was 90, the “Plant response rating, Barnyardgrass” value [7, 14] was 100 and the “Plant response rating, Flood, Sedge, Umbrella” value [8] was 80. The “Plant response rating, Sedge, Umbrella” value [8, 15] was 70, the “Plant response rating, Sedge, Umbrella” value [8, 16] was 80 and the “Sedge, Umbrella plant response rating” value [8, 17] was 0. For the same compound, the “Plant response rating, Flood, Rice” value (rice (Oryza sativa)) was 55, the “Plant response rating, Rice” value (rice (Oryza sativa); [15]) was 0 and the “Plant response rating, Rice” value (rice (Oryza sativa); [16]) was 45. For the same compound, the “Rice plant response rating” value (rice (Oryza sativa); [17]) was 0, the “Plant response rating, Flood, Ducksalad” value [9] was 100 and the “Plant response rating, Ducksalad” value [9, 15] was 95. For the same compound, the “Plant response rating, Ducksalad” value [9, 16] was 100, the “Ducksalad plant response rating” value [9, 17] was 95 and the “Plant response rating, Flood, Barnyardgrass” value [10] was 75. The “Plant response rating, Barnyardgrass” value [10, 15] was 20, the “Plant response rating, Barnyardgrass” value [10, 16] was 50 and the “Barnyardgrass plant response rating” value [10, 17] was 0.
With `O=C1CCCC(O)=C1C(=O)c1cnc(-c2ccccc2)n(C2CCCC2)c1=O` [Compound 131] the “Plant response rating, Morningglory” value [1, 11] was 100, the “Plant response rating, Morningglory” value [1, 18] was 100 and the “Plant response rating, Morningglory” value [1, 19] was 80. For the same compound, the “Plant response rating, Wheat” value [2, 11] was 0, the “Plant response rating, Wheat” value [2, 18] was 0 and the “Plant response rating, Wheat” value [2, 13] was 0. For the same compound, the “Plant response rating, Wheat” value [2, 19] was 0, the “Plant response rating, Velvetleaf” value [3, 11] was 100 and the “Plant response rating, Velvetleaf” value [3, 18] was 100. For the same compound, the “Plant response rating, Velvetleaf” value [3, 13] was 80, the “Plant response rating, Velvetleaf” value [3, 19] was 100 and the “Plant response rating, Pigweed” value [4, 11] was 100. For the same compound, the “Plant response rating, Pigweed” value [4, 18] was 100, the “Plant response rating, Pigweed” value [4, 13] was 100 and the “Plant response rating, Pigweed” value [4, 19] was 100. The “Plant response rating, Crabgrass, Large” value [5, 11] was 90, the “Plant response rating, Crabgrass, Large” value [5, 18] was 90 and the “Plant response rating, Crabgrass, Large” value [5, 13] was 80. For the same compound, the “Plant response rating, Crabgrass, Large” value [5, 19] was 100, the “Plant response rating, Corn” value (corn (Zea mays); [11]) was 0 and the “Plant response rating, Corn” value (corn (Zea mays); [18]) was 30. The “Plant response rating, Corn” value (corn (Zea mays); [13]) was 0, the “Plant response rating, Corn” value (corn (Zea mays); [19]) was 0 and the “Plant response rating, Foxtail, Giant” value [6, 11] was 80. For the same compound, the “Plant response rating, Foxtail, Giant” value [6, 18] was 90, the “Plant response rating, Foxtail, Giant” value [6, 13] was 60 and the “Plant response rating, Foxtail, Giant” value [6, 19] was 80. For the same compound, the “Plant response rating, Barnyardgrass” value [7, 11] was 90, the “Plant response rating, Barnyardgrass” value [7, 18] was 90 and the “Plant response rating, Barnyardgrass” value [7, 13] was 50. For the same compound, the “Plant response rating, Barnyardgrass” value [7, 19] was 100, the “Plant response rating, Flood, Sedge, Umbrella” value [8] was 85 and the “Plant response rating, Sedge, Umbrella” value [8, 15] was 20. The “Plant response rating, Flood, Rice” value (rice (Oryza sativa)) was 55, the “Plant response rating, Rice” value (rice (Oryza sativa); [15]) was 25 and the “Plant response rating, Flood, Ducksalad” value [9] was 85. The “Plant response rating, Ducksalad” value [9, 15] was 40, the “Plant response rating, Flood, Barnyardgrass” value [10] was 50 and the “Plant response rating, Barnyardgrass” value [10, 15] was 20.
With `COCC(C)n1c(-c2ccccc2)ncc(C(=O)C2=C(O)CCCC2=O)c1=O` (stereo not drawn) [Compound 107] the “Plant response rating, Morningglory” value [1, 11] was 100, the “Plant response rating, Morningglory” value [1, 18] was 100 and the “Plant response rating, Morningglory” value [1, 13] was 70. For the same compound, the “Plant response rating, Morningglory” value [1, 19] was 100, the “Plant response rating, Wheat” value [2, 11] was 0 and the “Plant response rating, Wheat” value [2, 18] was 10. The “Plant response rating, Wheat” value [2, 13] was 0, the “Plant response rating, Wheat” value [2, 19] was 0 and the “Plant response rating, Velvetleaf” value [3, 11] was 100. The “Plant response rating, Velvetleaf” value [3, 18] was 100, the “Plant response rating, Velvetleaf” value [3, 13] was 100 and the “Plant response rating, Velvetleaf” value [3, 19] was 100. For the same compound, the “Plant response rating, Pigweed” value [4, 11] was 100, the “Plant response rating, Pigweed” value [4, 18] was 100 and the “Plant response rating, Pigweed” value [4, 13] was 100. For the same compound, the “Plant response rating, Pigweed” value [4, 19] was 100, the “Plant response rating, Crabgrass, Large” value [5, 11] was 80 and the “Plant response rating, Crabgrass, Large” value [5, 18] was 90. The “Plant response rating, Crabgrass, Large” value [5, 13] was 90, the “Plant response rating, Crabgrass, Large” value [5, 19] was 100 and the “Plant response rating, Corn” value (corn (Zea mays); [11]) was 0. For the same compound, the “Plant response rating, Corn” value (corn (Zea mays); [18]) was 50, the “Plant response rating, Corn” value (corn (Zea mays); [13]) was 20 and the “Plant response rating, Foxtail, Giant” value [6, 11] was 70. For the same compound, the “Plant response rating, Foxtail, Giant” value [6, 18] was 90, the “Plant response rating, Foxtail, Giant” value [6, 13] was 60 and the “Plant response rating, Foxtail, Giant” value [6, 19] was 90. The “Plant response rating, Barnyardgrass” value [7, 11] was 90, the “Plant response rating, Barnyardgrass” value [7, 18] was 90 and the “Plant response rating, Barnyardgrass” value [7, 13] was 40. The “Plant response rating, Barnyardgrass” value [7, 19] was 90, the “Plant response rating, Flood, Sedge, Umbrella” value [8] was 85 and the “Plant response rating, Sedge, Umbrella” value [8, 15] was 60. For the same compound, the “Plant response rating, Flood, Rice” value (rice (Oryza sativa)) was 45, the “Plant response rating, Rice” value (rice (Oryza sativa); [15]) was 20 and the “Plant response rating, Flood, Ducksalad” value [9] was 40. The “Plant response rating, Ducksalad” value [9, 15] was 0, the “Plant response rating, Flood, Barnyardgrass” value [10] was 60 and the “Plant response rating, Barnyardgrass” value [10, 15] was 40.

Source: US8952024B2, “Herbicidal pyrimidone derivatives” (E I du Pont de Nemours and Company, priority 2009, dated 2015)
